Measurements reported in patent US10670605B2, “Cysteine reactive probes and uses thereof” (The Scripps Research Institute, priority 2015, dated 2020).

How the values were obtained:
Assay in all cases: Competitive isoTOP-ABPP in situ (fragment-treated cells)
Assay type in all cases: cell-based
[1] = target: T1, cysteines in MDA-MB-231 and Ramos cells (Homo sapiens, UniProt P42765)
T1 sequence (P42765 1-397): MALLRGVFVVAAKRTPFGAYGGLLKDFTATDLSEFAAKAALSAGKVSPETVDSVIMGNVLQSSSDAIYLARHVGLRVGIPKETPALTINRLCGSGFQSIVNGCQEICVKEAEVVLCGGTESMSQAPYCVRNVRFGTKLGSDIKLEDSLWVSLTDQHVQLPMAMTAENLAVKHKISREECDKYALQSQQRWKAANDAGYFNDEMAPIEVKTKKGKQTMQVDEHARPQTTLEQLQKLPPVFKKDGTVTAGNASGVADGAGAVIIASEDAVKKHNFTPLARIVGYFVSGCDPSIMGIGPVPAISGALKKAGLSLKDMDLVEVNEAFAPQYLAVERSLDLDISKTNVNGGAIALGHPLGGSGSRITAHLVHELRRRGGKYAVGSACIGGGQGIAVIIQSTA

[2] = target: T2, cysteines in MDA-MB-231 and Ramos cells (Homo sapiens, UniProt P50570)
T2 sequence (P50570 1-870): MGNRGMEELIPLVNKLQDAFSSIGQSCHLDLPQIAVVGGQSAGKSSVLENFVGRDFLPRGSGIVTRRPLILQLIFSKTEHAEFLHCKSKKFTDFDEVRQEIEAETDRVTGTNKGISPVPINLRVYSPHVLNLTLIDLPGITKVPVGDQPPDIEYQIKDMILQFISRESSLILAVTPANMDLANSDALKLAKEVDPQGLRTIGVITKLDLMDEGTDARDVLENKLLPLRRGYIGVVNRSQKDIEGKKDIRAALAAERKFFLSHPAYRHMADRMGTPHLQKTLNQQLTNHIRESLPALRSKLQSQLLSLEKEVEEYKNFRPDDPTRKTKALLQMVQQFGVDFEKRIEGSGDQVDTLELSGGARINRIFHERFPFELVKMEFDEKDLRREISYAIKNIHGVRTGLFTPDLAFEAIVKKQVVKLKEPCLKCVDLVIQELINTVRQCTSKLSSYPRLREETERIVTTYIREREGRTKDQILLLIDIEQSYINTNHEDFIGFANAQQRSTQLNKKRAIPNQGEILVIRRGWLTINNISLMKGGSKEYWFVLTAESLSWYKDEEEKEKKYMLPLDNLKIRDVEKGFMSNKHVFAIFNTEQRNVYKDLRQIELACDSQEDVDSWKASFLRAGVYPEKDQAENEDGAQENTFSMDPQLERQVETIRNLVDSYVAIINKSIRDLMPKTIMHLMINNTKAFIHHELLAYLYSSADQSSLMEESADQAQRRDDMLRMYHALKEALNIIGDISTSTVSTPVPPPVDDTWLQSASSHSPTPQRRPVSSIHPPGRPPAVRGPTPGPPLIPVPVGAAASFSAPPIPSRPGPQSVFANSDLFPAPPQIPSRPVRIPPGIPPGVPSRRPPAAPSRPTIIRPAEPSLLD

[3] = target: cysteines in MDA-MB-231 and Ramos cells (Homo sapiens, UniProt Q7Z2W4)
[4] = target: T3, cysteines in MDA-MB-231 and Ramos cells (Homo sapiens, UniProt P49588)
T3 sequence (P49588 1-968): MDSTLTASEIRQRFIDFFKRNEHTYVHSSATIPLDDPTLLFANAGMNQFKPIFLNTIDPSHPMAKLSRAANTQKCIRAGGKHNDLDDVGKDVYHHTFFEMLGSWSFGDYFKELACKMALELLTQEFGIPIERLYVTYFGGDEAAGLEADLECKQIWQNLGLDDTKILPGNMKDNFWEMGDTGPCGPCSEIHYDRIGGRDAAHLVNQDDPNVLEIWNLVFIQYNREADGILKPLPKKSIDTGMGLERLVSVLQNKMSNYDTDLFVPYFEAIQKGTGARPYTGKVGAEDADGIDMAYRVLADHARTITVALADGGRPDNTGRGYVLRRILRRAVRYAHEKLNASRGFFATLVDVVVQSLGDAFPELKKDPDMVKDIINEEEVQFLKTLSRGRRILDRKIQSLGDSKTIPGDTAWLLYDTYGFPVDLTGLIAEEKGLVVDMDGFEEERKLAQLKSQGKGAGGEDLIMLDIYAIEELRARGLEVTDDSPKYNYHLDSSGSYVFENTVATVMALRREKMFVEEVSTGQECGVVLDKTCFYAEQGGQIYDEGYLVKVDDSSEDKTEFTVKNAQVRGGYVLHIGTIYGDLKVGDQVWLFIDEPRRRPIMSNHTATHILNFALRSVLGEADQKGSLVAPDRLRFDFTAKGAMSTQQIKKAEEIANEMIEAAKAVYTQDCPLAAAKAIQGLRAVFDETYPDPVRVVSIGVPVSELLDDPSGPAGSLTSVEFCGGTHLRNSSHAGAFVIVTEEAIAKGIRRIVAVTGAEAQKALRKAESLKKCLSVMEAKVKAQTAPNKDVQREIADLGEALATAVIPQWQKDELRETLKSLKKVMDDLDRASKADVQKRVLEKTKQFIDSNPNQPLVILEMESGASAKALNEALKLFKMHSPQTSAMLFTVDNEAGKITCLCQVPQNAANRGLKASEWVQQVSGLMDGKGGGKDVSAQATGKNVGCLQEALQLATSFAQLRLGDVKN

cysteines in MDA-MB-231 and Ramos cells (Homo sapiens, UniProt Q7Z2W4), sequence (Q7Z2W4 whole entry): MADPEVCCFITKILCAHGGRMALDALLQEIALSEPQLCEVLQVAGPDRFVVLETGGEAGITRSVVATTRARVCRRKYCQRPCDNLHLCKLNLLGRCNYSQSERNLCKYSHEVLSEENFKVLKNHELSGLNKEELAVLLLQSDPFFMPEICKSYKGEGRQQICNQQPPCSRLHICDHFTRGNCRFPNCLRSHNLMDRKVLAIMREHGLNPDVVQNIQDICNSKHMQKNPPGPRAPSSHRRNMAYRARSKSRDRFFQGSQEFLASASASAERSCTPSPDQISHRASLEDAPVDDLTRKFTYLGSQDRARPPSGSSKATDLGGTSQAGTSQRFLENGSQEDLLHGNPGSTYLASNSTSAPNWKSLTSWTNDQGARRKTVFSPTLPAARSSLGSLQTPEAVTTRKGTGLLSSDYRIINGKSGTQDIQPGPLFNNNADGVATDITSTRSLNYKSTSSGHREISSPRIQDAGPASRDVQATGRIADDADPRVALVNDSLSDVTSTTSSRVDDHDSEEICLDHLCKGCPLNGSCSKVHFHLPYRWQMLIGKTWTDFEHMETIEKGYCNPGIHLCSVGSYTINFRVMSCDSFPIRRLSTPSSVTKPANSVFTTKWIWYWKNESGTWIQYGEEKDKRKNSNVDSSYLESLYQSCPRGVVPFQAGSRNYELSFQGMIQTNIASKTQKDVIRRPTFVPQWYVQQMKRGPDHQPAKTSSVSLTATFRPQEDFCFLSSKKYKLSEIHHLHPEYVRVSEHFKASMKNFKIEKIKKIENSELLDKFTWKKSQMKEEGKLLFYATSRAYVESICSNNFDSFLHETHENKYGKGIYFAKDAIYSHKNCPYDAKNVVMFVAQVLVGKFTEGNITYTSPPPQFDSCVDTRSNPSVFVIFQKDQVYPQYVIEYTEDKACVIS

Row | SMILES | isoTOP-ABPP ratio P42765_C92 ([1]; 200 μM, insitu, 231) | isoTOP-ABPP ratio Q7Z2W4_C645 ([3]; 200 μM, insitu, 231) | isoTOP-ABPP ratio P49588_C773 ([4]; 200 μM, insitu, 231) | isoTOP-ABPP ratio P50570_C27 ([2]; 200 μM, insitu, 231) | further results
1 | COc1ccc2c(c1)CCCN2C(=O)CCl [compound 2] |  |  |  |  | isoTOP-ABPP reactivity P42765_C92 ACAA2 ([1]; 200 μM, insitu, 231): 20.0; isoTOP-ABPP reactivity P50570_C27 DNM2 ([2]; 200 μM, insitu, 231): 4.6
2 | COc1ccc(C2CC(c3cccs3)=NN2C(=O)CCl)cc1 (stereo not shown) [compound 4] |  |  |  |  | isoTOP-ABPP reactivity P42765_C92 ACAA2 ([1]; 100 μM in situ 231): 3.7; isoTOP-ABPP reactivity Q7Z2W4_C645 ZC3HAV1 ([3]; 100 μM in situ 231): 4.4; isoTOP-ABPP reactivity P49588_C773 AARS ([4]; 100 μM in situ 231): 1.3; isoTOP-ABPP reactivity P50570_C27 DNM2 ([2]; 100 μM in situ 231): 2.2
3 | COc1cc2c(cc1OC)CN(C(=O)CCl)CC2 [compound 8] |  |  |  |  | isoTOP-ABPP reactivity P42765_C92 ACAA2 ([1]; 200 μM, insitu, 231): 20.0; isoTOP-ABPP reactivity Q7Z2W4_C645 ZC3HAV1 ([3]; 200 μM, insitu, 231): 5.1; isoTOP-ABPP reactivity P49588_C773 AARS ([4]; 200 μM, insitu, 231): 1.5
4 | O=C(CCl)N1CCC(Cc2ccccc2)CC1 [compound 9] |  |  |  |  | isoTOP-ABPP reactivity P42765_C92 ACAA2 ([1]; 200 μM, insitu, 231): 4.3; isoTOP-ABPP reactivity Q7Z2W4_C645 ZC3HAV1 ([3]; 200 μM, insitu, 231): 3.0; isoTOP-ABPP reactivity P49588_C773 AARS ([4]; 200 μM, insitu, 231): 1.5
5 | O=C(CCl)N1CCN(S(=O)(=O)c2ccccc2F)CC1 [compound 10] | 3.7 | 3.8 | 2.1 | 3.1 | isoTOP-ABPP ratio P42765_C92 ([1]; 200 μM, insitu, ramos): 1.1; isoTOP-ABPP ratio P49588_C773 ([4]; 200 μM, insitu, ramos): 1.7
6 | Cn1cc(S(=O)(=O)N2CCOCC2)cc1C(=O)NC(=O)CCl [compound 11] |  |  |  |  | isoTOP-ABPP ratio Q7Z2W4_C645 ([3]; 100 μM in situ 231): 1.0; isoTOP-ABPP ratio P49588_C773 ([4]; 100 μM in situ 231): 0.9; isoTOP-ABPP ratio P50570_C27 ([2]; 100 μM in situ 231): 0.7
7 | O=C(CCl)NC(=O)NC12CC3CC(CC(C3)C1)C2 [compound 12] | 20.0 | 3.3 | 0.9 | 0.7 | 
8 | O=C(CCl)NCCc1c[nH]c2ccccc12 [compound 13] |  | 1.3 | 0.8 |  | isoTOP-ABPP ratio P42765_C92 ([1]; 200 μM, insitu, ramos): 2.2; isoTOP-ABPP ratio Q7Z2W4_C645 ([3]; 200 μM, insitu, ramos): 0.9; isoTOP-ABPP ratio P49588_C773 ([4]; 200 μM, insitu, ramos): 1.1; isoTOP-ABPP ratio P50570_C27 ([2]; 200 μM, insitu, ramos): 1.0
9 | O=C(CCl)NC12CC3CC(CC(C3)C1)C2 [compound 21] | 1.3 | 0.9 | 1.1 | 0.8 | 
10 | CC(C)CCOCCNC(=O)CCl [compound 27] | 1.2 | 0.8 | 0.6 | 0.5 | 
11 | O=C(CCl)N1CCN(CC(=O)N2CCOCC2)CC1 [compound 29] |  |  |  |  | isoTOP-ABPP ratio P42765_C92 ([1]; 200 μM, insitu, ramos): 0.9; isoTOP-ABPP ratio Q7Z2W4_C645 ([3]; 200 μM, insitu, ramos): 1.6; isoTOP-ABPP ratio P49588_C773 ([4]; 200 μM, insitu, ramos): 1.1; isoTOP-ABPP ratio P50570_C27 ([2]; 200 μM, insitu, ramos): 1.0
12 | C=CC(=O)N(Cc1cccnc1)c1cc(C(F)(F)F)cc(C(F)(F)F)c1 [compound 31] | 0.8 |  |  |  | isoTOP-ABPP ratio P42765_C92 ([1]; 200 μM, insitu, ramos): 1.2; isoTOP-ABPP ratio P49588_C773 ([4]; 200 μM, insitu, ramos): 1.2
13 | C=CC(=O)Nc1cc(F)c(N2CCN(C(=O)OC(C)(C)C)CC2)c(F)c1 [compound 38] | 0.9 | 0.9 | 0.7 | 0.9 | 
14 | Cc1ccc(C=C(C#N)C(=O)NCCN2CCOCC2)cc1 [compound 41] | 1.1 | 0.9 | 0.7 | 0.5 | 
15 | CC1CCc2ccccc2N1C(=O)CCl (stereo not shown) [compound 45] | 15.1 | 4.6 | 10.1 | 15.4 | 
16 | O=C(CCl)Nc1cccc2ncccc12 [compound 51] | 1.1 | 1.6 |  | 1.1 | 
